Laboratory results taken from patent US9439425B2, “Plant disease control composition and plant disease control method” (Sumitomo Chemical Company, Limited, priority 2012, dated 2016).

tested on: powdery mildew; experiment: Test Example 1: foliar spray on potted wheat, powdery mildew inoculation, control value from onset area rate; type: in vivo, Wheat (Shirogane); details: treatment concentration 0.1 ppm, single agent; foliage spray on wheat, powdery mildew inoculated, 7 days at 21° C.
Experimental: A plastic pot was stuffed with a sand soil. Wheat (Shirogane) was sown thereon, allowed to grow in a greenhouse at 24° C. for 7 days, transferred to a greenhouse at 15° C., and then allowed to grow for 14 days. A water-diluted solution of the present compound (I) and a water-diluted solution of pyriofenone, metrafenone, cyflufenamid, quinoxyfen or proquinazid were mixed to prepare an agent solution containing prescribed amounts of the present compound (I) and, pyriofenone, metrafenone, cyflufenamid, quinoxyfen or proquinazid. The agent solution was sprayed to the foliage of the wheat, then the plant was air-dried, and then a powdery mildew was inoculated. After the inoculation, the plant was allowed to stand at 21° C. for 7 days and then an onset area rate was examined visually and a control value was calculated using the following formula. Moreover, the present compound (I), pyriofenone, metrafenone, cyflufenamid, quinoxyfen or proquinazid was diluted with water to prepare water-diluted solutions with a prescribed concentration, the same test was carried out for each of the solutions and control values were calculated. Control value (%)=100×(A−B)/A A: an onset area rate of the non-treated group B: an onset area rate of the treated group Results are shown in Table 1.

With `C=CCSC(=O)n1c(N)c(-c2ccccc2C)c(=O)n1C(C)C` [Present compound (I)] the Control value was 3%.

same assay, conditions: treatment concentration 0.15 ppm, single agent; foliage spray on wheat, powdery mildew inoculated, 7 days at 21° C.

In order of falling Control value:
1. CCCOc1nc2ccc(I)cc2c(=O)n1CCC [Proquinazid]  74%
2. COc1cc(C)c(C(=O)c2c(OC)ccc(Br)c2C)c(OC)c1OC [Metrafenone]  71%
3. Fc1ccc(Oc2ccnc3cc(Cl)cc(Cl)c23)cc1 [Quinoxyfen]  71%
4. COc1cc(C)c(C(=O)c2c(OC)ncc(Cl)c2C)c(OC)c1OC [Pyriofenone]  69%
5. O=C(Cc1ccccc1)N/C(=N\OCC1CC1)c1c(C(F)(F)F)ccc(F)c1F [Cyflufenamid]  52%
